Measured values reported in paper PMC4492764, “Evaluation of biomarkers for in vitro prediction of drug-induced nephrotoxicity: comparison of HK-2, immortalized human proximal tubule epithelial, and primary cultures of human proximal tubular cells” (Pharmacology Research & Perspectives, 2015).
Structures can show the parent of a compound that is named as a salt.

What was measured:
Format in all cases: cell-based, human
M-CSF [1] = experiment: M-CSF protein ELISA in HK-2 cells; design: key: +: statistically significant increase; −: no significant increase; conditions: protein levels in culture medium; 72 h time point
Procedure: (§1) Sandwich-ELISA experiments were conducted following the manufacturer's instructions with slight modifications. A 96-well microplate (MaxiSorp®, Nunc, Thermo Scientific, NSW, Australia) was coated with 100 μL of capture antibodies (diluted 1:200 in PBS) and incubated overnight. The plate was then washed twice with washing buffer (0.05% Tween 20 in PBS, pH 7.4) and blocked by adding 300 μL of blocking buffer (1% bovine serum albumin (BSA) in PBS) for 1 h at room temperature. After washing two times with PBS, 100 μL of samples (cell culture media or cell lysates) or standards were then added to each well and incubated for 2 h at room temperature. The biotinylated detection antibodies were then diluted in blocking buffer, added to each well and incubated for 2 h. Horseradish peroxidase (HRP)-labeled streptavidin (100 μL) was then added to bind to detection antibodies. To each well, 100 μL of substrate solution (1:1 mixture of H2O2 and tetramethylbenzidine) was added and incubated for 20 min before reaction termination with 50 μL of stop solution (2N H2SO4). The optical density of each well was measured at 450 nm using a POLARstar Omega plate reader (BMG Labtech). All assays were performed at least three times, with at least two technical replicates in each assay.

KIM-1 [2] = experiment: KIM-1 protein ELISA in HK-2 cells; design: key: +: statistically significant increase; −: no significant increase; conditions: protein levels in culture medium; 72 h time point
Procedure: as §1, with “HK-2 cells (ATCC CRL-2190; Manassas, VA) were maintained in DMEM/F12 (Life Technologies; Sydney, NSW, Australia) supplemented with 5 μg/mL insulin, 5 μg/mL transferrin, 5 ng/mL sodium selenite (ITS; Roche; […] (passage 2) and culture kits were purchased from Lonza. […] were maintained in Renal Epithelial Cell BulletKitTM (CC-3190, Lonza) at 37°C and 5% CO2 atmosphere. Cells were passaged to 96-well plates with a density of 4000 cells/well. After 24 h culture, compounds with different concentration series were added into each well and incubated for 4, 24, 48, and 72 h. KIM-1 (DY1750), NGAL (DY1757), and M-CSF (DY216) Duo-Set® ELISA kits were purchased from R&D systems (Minneapolis, MN). Sandwich-ELISA” for “Sandwich-ELISA”

NGAL = NGAL protein ELISA in hRPTECs; design: key to Upregulation of NGAL hRPTECs P: +: statistically significant increase; −: no significant increase; conditions: for Upregulation of NGAL hRPTECs P: protein levels in culture medium, 72 h time point
Procedure: as §1, with “HK-2 cells (ATCC CRL-2190; Manassas, VA) were maintained in DMEM/F12 (Life Technologies; Sydney, NSW, Australia) supplemented with 5 μg/mL insulin, 5 μg/mL transferrin, 5 ng/mL sodium selenite (ITS; Roche; […] (passage 2) and culture kits were purchased from Lonza. […] were maintained in Renal Epithelial Cell BulletKitTM (CC-3190, Lonza) at 37°C and 5% CO2 atmosphere. Cells were passaged to 96-well plates with a density of 4000 cells/well. After 24 h culture, compounds with different concentration series were added into each well and incubated for 4, 24, 48, and 72 h. KIM-1 (DY1750), NGAL (DY1757), and M-CSF (DY216) Duo-Set® ELISA kits were purchased from R&D systems (Minneapolis, MN). Sandwich-ELISA” for “Sandwich-ELISA”

KIM-1 [3] = experiment: KIM-1 protein ELISA in hRPTECs; design: key to Upregulation of KIM-1 hRPTECs P: +: statistically significant increase; −: no significant increase; conditions: protein levels in culture medium; 72 h time point
Procedure: as §1, with “HK-2 cells (ATCC CRL-2190; Manassas, VA) were maintained in DMEM/F12 (Life Technologies; Sydney, NSW, Australia) supplemented with 5 μg/mL insulin, 5 μg/mL transferrin, 5 ng/mL sodium selenite (ITS; Roche; […] (passage 2) and culture kits were purchased from Lonza. […] were maintained in Renal Epithelial Cell BulletKitTM (CC-3190, Lonza) at 37°C and 5% CO2 atmosphere. Cells were passaged to 96-well plates with a density of 4000 cells/well. After 24 h culture, compounds with different concentration series were added into each well and incubated for 4, 24, 48, and 72 h. KIM-1 (DY1750), NGAL (DY1757), and M-CSF (DY216) Duo-Set® ELISA kits were purchased from R&D systems (Minneapolis, MN). Sandwich-ELISA” for “Sandwich-ELISA”

KIM-1 mRNA [4] = experiment: KIM-1 mRNA qRT-PCR in hRPTECs; design: key to Upregulation of KIM-1 hRPTECs R: +: statistically significant increase; −: no significant increase; conditions: mRNA levels; 72 h time point
Procedure: (§2) HK-2 cells (ATCC CRL-2190; Manassas, VA) were maintained in DMEM/F12 (Life Technologies; Sydney, NSW, Australia) supplemented with 5 μg/mL insulin, 5 μg/mL transferrin, 5 ng/mL sodium selenite (ITS; Roche; […] (passage 2) and culture kits were purchased from Lonza. […] were maintained in Renal Epithelial Cell BulletKitTM (CC-3190, Lonza) at 37°C and 5% CO2 atmosphere. Cells were passaged to 96-well plates with a density of 4000 cells/well. After 24 h culture, compounds with different concentration series were added into each well and incubated for 4, 24, 48, and 72 h. HK-2 and […] were treated with compounds for 4, 24, 48, and 72 h, then the cells were lysed and the RNA reverse transcribed with the TaqMan® Gene Expression Cells-to-CTTM Kit (Life Technologies) according to the manufacturer's instructions. […] Hs00273334_m1), Lcn2 (NGAL; Hs01008571_m1), and Csf1 (M-CSF; Hs00174164_m1). All probes span an exon-exon junction. The real-time quantitative reverse transcription PCR (qRT-PCR) was performed in a 10 μl final reaction mixture using a ViiA 7TM system (Applied Biosystems®, Sydney, NSW, Australia) based on the following thermo cycling conditions: 10 min at 95°C for one cycle, 15 sec at 95°C, 60 sec at 60°C for 40 cycles. The ViiA 7TM software was used for data analysis with Hprt1 expression used for normalization. All assays were performed at least three times, with at least two technical replicates in each assay.

NGAL mRNA = NGAL mRNA qRT-PCR in HK-2 cells; design: key to Upregulation of NGAL HK-2 R: +: statistically significant increase; −: no significant increase; conditions: for Upregulation of NGAL HK-2 R: mRNA levels, 72 h time point
Procedure: as §2

M-CSF [5] = experiment: M-CSF protein ELISA in hRPTECs; design: key: +: statistically significant increase; −: no significant increase; conditions: protein levels in culture medium; 72 h time point
Procedure: as §1

KIM-1 mRNA [6] = experiment: KIM-1 mRNA qRT-PCR in HK-2 cells; design: key to Upregulation of KIM-1 HK-2 R: +: statistically significant increase; −: no significant increase; conditions: for Upregulation of KIM-1 HK-2 R: mRNA levels, 72 h time point
Procedure: as §2

HK-2 cells = experiment: Resazurin cytotoxicity assay in HK-2 cells
Procedure: For the MTT assay, the medium was then removed, the dried crystals were resuspended in 60 μL of Dimethyl sulfoxide (DMSO), and the absorbance was read at 570 nm. For the resazurin assay, the fluorescence intensity was read using a PolarStar Omega plate reader (BMG Labtech; Mornington VIC, Australia) at excitation/emission 560/590 nm. All assays were performed at least three times. […] La Jolla, CA). Both MTT and resazurin assays were performed three times, with two technical replicates in each assay.

Compound | Upregulation of M-CSF HK-2 P (M-CSF [1]) | Upregulation of KIM-1 HK-2 P (KIM-1 [2]) | Upregulation of NGAL hRPTECs P (NGAL) | Upregulation of KIM-1 hRPTECs P (KIM-1 [3]) | Upregulation of KIM-1 hRPTECs R (KIM-1 mRNA [4]) | NGAL mRNA level in HK-2 cells (NGAL mRNA; 72 h exposure, P < 0.01) | Upregulation of NGAL HK-2 R (NGAL mRNA) | Upregulation of M-CSF hRPTECs P (M-CSF [5]) | KIM-1 mRNA transcription level in HK-2 cells (KIM-1 mRNA [6]; 72 h, P < 0.005) | Upregulation of KIM-1 HK-2 R (KIM-1 mRNA [6]) | toxicity in resazurin assay at highest concentration tested (HK-2 cells; 72 h, highest concentrations gentamicin 1 mmol/L, CsA 50 μmol/L, cell type not given) | NGAL protein upregulation in hRPTECs (NGAL; 4 h, culture medium (Fig. S5C)) | CC50 (HK-2 cells; 72 h incubation, Mean ± Standard deviation, n = 3) [µM]
N.N.[Cl][Pt][Cl] [Cisplatin, cisplatin] | − | − | + | + | − | clearly increased | + | + | increased | + |  |  | 
CNC(C)C1CCC(N)C(OC2C(N)CC(N)C(OC3OCC(C)(O)C(NC)C3O)C2O)O1 (stereo not drawn) [Gentamicin, gentamicin sulfate] |  | − | + | + | − |  | − |  |  | − | no toxicity |  | 
Colistin sulfate | − | − | + | + | − |  | − | − |  | − |  | significant upregulation | > 300
